Measurements: ChEMBL document CHEMBL4831477, “Structure-Enabled Discovery of Novel Macrocyclic Inhibitors Targeting Glutaminase 1 Allosteric Binding Site” (J Med Chem, 2021)
≈ marks a conversion by molar mass, not a printed value. Calls of active or inactive are those of the source. The calls are words filed in the database; no cut-off is given here.

How the values were obtained:
[1] = Acute toxicity in BALB/c nude mouse assessed as liver damage at 200 mg/kg, po administered twice daily for 4 weeks by H and E staining based optical microscopic analysis; type: organism-based; details: in vivo, 672 h
[2] = AUC(0 to infinity) in Sprague-Dawley rat at 5 mg/kg, iv measured upto 72 hrs by LC-MS/MS analysis; type: ADME, organism-based; parameters: route intravenous, dose 5 mg/kg, time <=72; details: Sprague-Dawley, in vivo
HCT-116 [3] = experiment: Antitumor activity against human HCT-116 cells xenografted in BALB/c nude mouse assessed as tumor destruction at 200 mg/kg, po administered twice daily measured after 28 days by H and E staining based optical microscopic method; type: functional, organism-based; details: time 28.0 day
Mus musculus = experiment: Induction of ROS generation in BALB/c mouse xenografted with human HCT-116 cells at 200 mg/kg, po; type: functional, organism-based
[4] = Distribution coefficient, logD of the compound at pH 7.4 by LC-MS based shake-flask method; type: physicochemical; details: octanol/water, read-out: logD
[5] = Clearance in Sprague-Dawley rat at 5 mg/kg, iv measured upto 72 hrs by LC-MS/MS analysis; type: ADME, organism-based; details: Sprague-Dawley, in vivo
[6] = Cmax in BALB/c nude mouse plasma xenografted with human HCT-116 cells at 200 mg/kg, po administered twice daily for 28 days; type: ADME, organism-based; parameters: route oral, time 28 day, dose 200 mg/kg
[7] = Apparent volume of distribution in Sprague-Dawley rat at 5 mg/kg, iv measured upto 72 hrs by LC-MS/MS analysis; type: ADME, organism-based; details: in vivo, read-out: Vz
[8] = target: T1, Glutaminase kidney isoform, mitochondrial (Mus musculus) (UniProt D3Z7P3); experiment: In vivo inhibition of GLS1 in BALB/c mouse xenografted with human HCT-116 cells assessed as reduction in glutamate level at 200 mg/kg, po; type: functional, organism-based
T1 sequence (whole entry): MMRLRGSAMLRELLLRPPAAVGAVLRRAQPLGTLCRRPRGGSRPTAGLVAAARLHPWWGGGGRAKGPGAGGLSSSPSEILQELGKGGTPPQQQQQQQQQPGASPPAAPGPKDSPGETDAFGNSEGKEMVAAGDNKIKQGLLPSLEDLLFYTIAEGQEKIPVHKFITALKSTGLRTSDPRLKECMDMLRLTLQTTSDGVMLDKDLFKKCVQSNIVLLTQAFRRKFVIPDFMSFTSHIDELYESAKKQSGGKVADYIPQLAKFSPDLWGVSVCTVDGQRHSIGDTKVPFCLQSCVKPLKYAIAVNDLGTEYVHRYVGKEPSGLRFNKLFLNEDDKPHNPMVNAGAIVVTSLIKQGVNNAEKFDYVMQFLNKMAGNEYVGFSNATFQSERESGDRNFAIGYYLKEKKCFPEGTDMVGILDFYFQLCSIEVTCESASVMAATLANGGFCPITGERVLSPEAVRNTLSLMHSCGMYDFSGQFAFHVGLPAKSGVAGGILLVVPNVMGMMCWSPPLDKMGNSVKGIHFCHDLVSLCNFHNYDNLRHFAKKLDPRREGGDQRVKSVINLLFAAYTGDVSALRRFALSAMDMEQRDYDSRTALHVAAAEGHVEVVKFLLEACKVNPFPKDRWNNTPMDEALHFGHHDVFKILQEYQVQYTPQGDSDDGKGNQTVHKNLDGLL

[9] = Acute toxicity in BALB/c nude mouse assessed as kidney damage at 200 mg/kg, po administered twice daily for 4 weeks by H and E staining based optical microscopic analysis; type: organism-based; details: in vivo, 672 h
[10] = Metabolic stability in human liver microsomes assessed as half life at 10 uM preincubated for 5 mins followed by NADPH addition by LC-MS/MS analysis; type: ADME, Microsome
HCT-116 [11] = experiment: Antitumor activity against human HCT-116 cells xenografted in BALB/c nude mouse assessed as large areas of necrosis at 200 mg/kg, po administered twice daily measured after 28 days by H and E staining based optical microscopic analysis; type: functional, organism-based; details: time 28.0 day
[12] = Intrinsic aqueous solubility of compound at pH 7.4 by LC-MS based shake-flask method; type: physicochemical; details: read-out: Intrinsic_solubility
[13] = Metabolic stability in mouse liver microsomes assessed as clearance at 10 uM preincubated for 5 mins followed by NADPH addition by LC-MS/MS analysis; type: ADME, Microsome; details: read-out: CLH
[14] = Free plasma protein in mouse; type: ADME, cell-free
[15] = Half life in Sprague-Dawley rat at 200 mg/kg, po measured upto 72 hrs by LC-MS/MS analysis; type: ADME, organism-based; details: in vivo
[16] = target: T1, Glutaminase kidney isoform, mitochondrial (Mus musculus); experiment: In vivo inhibition of GLS1 in BALB/c mouse xenografted with human HCT-116 cells assessed as increase in glutamine level at 200 mg/kg, po; type: functional, organism-based
HCT-116 [17] = experiment: Inhibition of clone formation in human HCT-116 cells at 0.1 to 2 microM incubated for 14 days by crystal violet staining based assay; type: functional, cell-based; details: dose 0.1-2 µM, time 14.0 day

**Q.** Which Activity [1] does the source give for `O=C1Cc2cccc(c2)OCC/C=C/CCOc2cccc(c2)CC(=O)Nc2nnc(s2)CCCCc2ccc(nn2)N1` here?
**A.** The Activity was “Non-Toxic”.

**Q.** What about the AUC(0-inf) [2] of the same compound?
**A.** The AUC(0-inf) was 1670 ng·h/mL.

**Q.** And the Activity (HCT-116 [3])?
**A.** Its Activity is “Active”.

**Q.** And the Activity (Mus musculus)?
**A.** The Activity was “Active”.

**Q.** And the logD [4]?
**A.** The logD was 3.13.

**Q.** What about the clearance [5] of the same compound?
**A.** Its clearance is 53.3 mL/min/kg.

**Q.** What about the Cmax [6] of the same compound?
**A.** The Cmax was 1630 nM.

**Q.** What about the Vd [7] of the same compound?
**A.** Its Vd is 19.7 L/kg.

**Q.** And the inhibition [8]?
**A.** Its inhibition is “Active”.

**Q.** And the Activity [9]?
**A.** Its Activity is “Non-Toxic”.

**Q.** And the half-life at 10 µM [10]?
**A.** The half-life at 10 µM was 2.72 h.

**Q.** What about the Activity (HCT-116 [11]) of the same compound?
**A.** Its Activity is “Active”.

**Q.** What about the solubility thermodynamic [12] of the same compound?
**A.** Its solubility thermodynamic is 1.73 µg/mL (≈ 2.89 µM).

**Q.** What about the microsomal CLint at 10 µM [13] of the same compound?
**A.** The microsomal CLint at 10 µM was 7.6 µL/min/mg.

**Q.** What about the fraction unbound [14] of the same compound?
**A.** Its fraction unbound is 0.129.

**Q.** And the half-life [15]?
**A.** Its half-life is 5.7 h.

**Q.** What about the inhibition [16] of the same compound?
**A.** Its inhibition is “Active”.

**Q.** And the inhibition (HCT-116 [17])?
**A.** Its inhibition is “Active”.
